Like-named read-outs stand apart in the source and are kept apart here.
System: Hyperlipidemic Hamster
Assay: In Vivo Assay of Hypolipidemic Agents Using the Hyperlipidemic Hamster
Conditions: Mesocricetus auratus, po, 168 h
Description: In Vivo Assay of Hypolipidemic Agents Using the Hyperlipidemic Hamster
Hamsters are separated into groups of six and given a controlled cholesterol diet (Purina Chow #5001 containing 0.5% cholesterol) for seven days. Diet consumption is monitored to determine dietary cholesterol exposure in the face of test compounds. The animals are dosed with the test compound once daily beginning with the initiation of diet. Dosing is by oral gavage of 0.2mL of corn oil alone (control group) or solution (or suspension) of test compound in corn oil. All animals roodbund or in poor physical condition are euthanized. After seven days, the animals are anesthetized by IM injection of ketamine and sacrificed by decapitation. Blood is collected into vacutainer tubes containing EDTA for plasma lipid analysis and the liver excised for tissue lipid analysis. Data is reported as percent reduction of lipid versus control.
Using the test procedures described above, the following in vitro and in vivo data were obtained for the preferred compounds, which are referred to in the following table by the corresponding example numbers. For the in vitro ACAT data, negative percent inhibition denotes apparent stimulation,while positive numbers denote inhibition. For the in vivo results, data is reported as percent change versus control, therefore, negative numbers indicate a positive lipid-lowering effect.

[1] = 50 mg/kg once daily oral, 7 days, percent change versus control, negative = lowering, read-out: % Reduction (in vivo) Cholest. Esters
[2] = 50 mg/kg once daily oral, 7 days, percent change versus control, negative = lowering, read-out: % Reduction (in vivo) Serum Cholest.
[3] = read-out: % Reduction (in vivo) Cholest. Esters
[4] = read-out: % Reduction (in vivo) Serum Cholest.

Structure (SMILES) | change in vivo at 50 mg/kg [1] [%] | change in vivo at 50 mg/kg [2] [%] | change in vivo at 50 mg/kg [3] [%] | change in vivo at 50 mg/kg [4] [%]
COc1ccc([C@@H]2[C@@H](CCCc3ccccc3)C(=O)N2c2cccnc2)cc1 (relative stereo) [Example 1AM] | -29 | -12 | – | –
COc1ccc([C@@H]2[C@@H](CCCc3ccccc3)C(=O)N2c2ccc(OC(F)(F)F)cc2)cc1 (relative stereo) [Example 1AN] | -85 | -34 | – | –
COc1ccc([C@H]2[C@@H](CCCc3ccccc3)C(=O)N2c2ccc(Cl)cc2)cc1 (relative stereo) [Example 1AO] | -78 | -33 | – | –
COc1ccc([C@H]2[C@@H](CCCc3ccccc3)C(=O)N2c2ccc(C)cc2)cc1 (relative stereo) [Example 1AP] | -95 | -51 | – | –
COc1ccc([C@H]2[C@@H](CCCc3ccccc3)C(=O)N2c2ccc(Oc3ccccc3)cc2)cc1 (relative stereo) [Example 1AQ] | -22 | -20 | – | –
COc1ccc(N2C(=O)[C@H](CCCc3ccccc3)[C@H]2c2nccn2COCC[Si](C)(C)C)cc1 (relative stereo) [Example 1AV] | – | – | 0 | 15
COc1ccc(N2C(=O)[C@H](CCCc3ccccc3)[C@@H]2c2nccn2COCC[Si](C)(C)C)cc1 (relative stereo) [Example 1AW] | – | – | -16 | -14
COc1ccc(N2C(=O)[C@H](CCCc3ccccc3)[C@@H]2c2ccc(OC(C)C)cc2)cc1 (relative stereo) [Example 1AY] | -78 | -28 | – | –
CCCOc1ccc([C@H]2[C@@H](CCCc3ccccc3)C(=O)N2c2ccc(OC)cc2)cc1 (relative stereo) [Example 1AZ] | -91 | -37 | – | –
COc1ccc(N2C(=O)[C@H](CCCc3ccccc3)[C@@H]2c2ccc(OC)c(C)c2)cc1 (relative stereo) [Example 1BA] | 0 | 0 | – | –
CCCCOc1ccc([C@H]2[C@@H](CCCc3ccccc3)C(=O)N2c2ccc(OC)cc2)cc1 (relative stereo) [Example 1BR] | -70 | -15 | – | –
COc1ccc(N2C(=O)[C@H](CCCc3ccccc3)[C@@H]2c2ccc(Oc3ccccc3)cc2)cc1 (relative stereo) [Example 1BS] | -43 | 0 | – | –
COc1ccc(N2C(=O)[C@H](CCCc3ccccc3)[C@@H]2c2ccc(-c3ccccc3)cc2)cc1 (relative stereo) [Example 1BT] | 0 | 0 | – | –
C=CCOc1ccc([C@H]2[C@@H](CCCc3ccccc3)C(=O)N2c2ccc(OC)cc2)cc1 (relative stereo) [Example 1BU] | -95 | -39 | – | –
COc1ccc(N2C(=O)[C@H](CCCc3ccccc3)[C@@H]2c2cc(OC)c(OC)c(OC)c2)cc1 (relative stereo) [Example 1BV] | 0 | -11 | – | –
COc1ccc(N2C(=O)[C@H](CCCc3ccccc3)[C@@H]2c2cn(C)c3ccccc23)cc1 (relative stereo) [Example 1BW] | -29 | -9 | – | –
COc1ccc(N2C(=O)[C@H](CCCc3ccccc3)[C@@H]2c2ccnc3ccccc23)cc1 (relative stereo) [Example 1BX] | 0 | 0 | – | –
CCOc1ccc([C@H]2[C@@H](CCCc3ccccc3)C(=O)N2c2ccccc2)cc1 (relative stereo) [Example 1BY] | -72 | -18 | – | –
COc1ccc(N2C(=O)[C@H](CCCc3ccccc3)[C@@H]2c2cc3ccccc3o2)cc1 (relative stereo) [Example 1BZ] | 0 | -9 | – | –

Reference: patent US5688787A, “Substituted β-lactam compounds useful as hypochlesterolemic agents and processes for the preparation thereof” (priority 1996, dated 1997)
